The results in this text go back to US11369688B2, “Hybrid telodendrimers” (THE REGENTS OF THE UNIVERSITY OF CALIFORNIA, priority 2016, dated 2022).

Molecules are shown by their SMILES.

The data set is described as follows: Visual observation of drug-loaded crosslinked PEG5K-(Ahx-(NAc-Cys))4/CA4 nanocarriers. To be noted: 1 mg drug/10 mg PEG5K-(Ahx-(NAc-Cys))4/CA4, crosslinked; effective concentration 2 mg drug/20 mg polymer per ml PBS. It counts as physicochemical.
Take `CO[C@H]1C(=O)[C@]2(C)[C@@H](OC)C[C@H]3OC[C@@]3(OC(C)=O)[C@H]2[C@H](OC(=O)c2ccccc2)[C@]2(O)C[C@H](OC(=O)[C@H](O)[C@@H](NC(=O)OC(C)(C)C)c3ccccc3)C(C)=C1C2(C)C` [Cabazitaxel, cabazitaxel]: the Observation result is recorded as “Clear solution”.

As to `CC(=O)O[C@@]12CO[C@@H]1C[C@H](O)[C@@]1(C)C(=O)[C@H](O)C3=C(C)[C@@H](OC(=O)[C@H](O)[C@@H](NC(=O)OC(C)(C)C)c4ccccc4)C[C@@](O)([C@@H](OC(=O)c4ccccc4)[C@H]21)C3(C)C` [Docetaxel, docetaxel], the Observation entry was “Clear solution”. Turning to `CC[C@]1(O)C[C@@H]2CN(CCc3c([nH]c4ccccc34)[C@@](C(=O)OC)(c3cc4c(cc3OC)N(C)[C@H]3[C@@](O)(C(=O)OC)[C@H](OC(C)=O)[C@]5(CC)C=CCN6CC[C@]43[C@@H]65)C2)C1` [Vinblastine], the Observation entry is “Clear”. As to `COc1cccc2c1C(=O)c1c(O)c3c(c(O)c1C2=O)C[C@@](O)(C(=O)CO)C[C@@H]3O[C@H]1C[C@H](N)[C@H](O)[C@H](C)O1` [Doxorubicin], the Observation result was “Clear solution”. The value for `CCc1c2c(nc3ccc(O)cc13)-c1cc3c(c(=O)n1C2)COC(=O)[C@]3(O)CC` [SN-38] was “Huge precipitate”.
